Our source for the IC50 values is patent US20260217693A1, “SRPK1 INHIBITORS AND METHODS OF USE” (ALLIANTHERA (SUZHOU) BIOPHARMACEUTICAL CO., LTD., priority 2023, published 2026).

Each structure is given as a SMILES string.

Chain of SRPK1 (Q96SB4 whole entry): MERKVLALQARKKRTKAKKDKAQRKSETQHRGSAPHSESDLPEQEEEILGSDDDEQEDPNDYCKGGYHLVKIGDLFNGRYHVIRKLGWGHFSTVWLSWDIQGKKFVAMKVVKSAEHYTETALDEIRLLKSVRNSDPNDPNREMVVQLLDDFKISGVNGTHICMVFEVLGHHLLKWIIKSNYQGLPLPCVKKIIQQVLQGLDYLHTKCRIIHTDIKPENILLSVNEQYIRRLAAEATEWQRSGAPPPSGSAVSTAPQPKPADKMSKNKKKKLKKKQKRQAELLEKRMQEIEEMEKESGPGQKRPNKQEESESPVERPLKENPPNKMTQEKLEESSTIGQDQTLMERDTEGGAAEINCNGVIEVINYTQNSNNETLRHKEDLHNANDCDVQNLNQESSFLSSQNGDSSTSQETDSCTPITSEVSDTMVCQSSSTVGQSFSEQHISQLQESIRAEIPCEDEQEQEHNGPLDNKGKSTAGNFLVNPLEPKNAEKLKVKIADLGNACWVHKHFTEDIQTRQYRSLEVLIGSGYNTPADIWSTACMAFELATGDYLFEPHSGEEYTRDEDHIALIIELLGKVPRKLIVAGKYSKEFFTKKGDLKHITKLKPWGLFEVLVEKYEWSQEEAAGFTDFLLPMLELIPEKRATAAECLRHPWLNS

For this assay, the target named is SRPK1 (Homo sapiens, UniProt Q96SB4). Nature of the assay: SRPK1 assay, Method 1 (ADP-Glo luminescence). To be noted: Method 1 (no asterisk): substrate Human SRSF1/SF2, 25° C. for 90 min, test compounds 30 μM top, 3-fold, duplicate. Format: biochemical. As to the method: The SPRK1 assay was performed as follows:
Method 1: The assay buffer was prepared. The reference compound was diluted to 10 mM. The test compounds were prepared at a concentration of 30 mM. Fifteen nL of compounds/DMSO were transferred to a multi-well plate. Then, 7.5 ul enzyme SRPK1 was added to each well, the plate was spun down at 1000 rpm and centrifuged for 30 sec. Then, 7.5 ul substrate Human SRSF1/SF2 was added to each well, the plate spun down at 1000 rpm and centrifuged for 30 sec. The plate was then incubated at 25° C. for 90 min. After 90 min, 5 μl of ADP-Glo™ Reagent was added to each well and the plate incubated at room temperature for 60 minutes. Then, 10 μl of Kinase Detection Reagent was added to each well and the plate incubate at room temperature for 60 minutes. The luminescence of each well was recorded on Envision. The test compounds were at 30 μM top, 3-fold, in duplicate, and the final concentration of DMSO was 0.1%.
All assays were performed using Method 1, except where indicated with an asterisk (*) in the below table, indicating Method 2 was used.
A general note: ADP-Glo first removes unused ATP, then detects ADP through luciferase.
With `O=C(Nc1cc(C2CC2)cnc1N1CCC(O)CC1)c1ccc(-c2cn[nH]c2)cn1` [Compound 125], the IC50 (commonly the concentration at which inhibition is half-maximal) was greater than 30000 nM.

`O=C(Nc1cc(C(F)(F)F)cnc1N1CCC(O)CC1)c1cnn(C2CCOCC2)c1` [Compound 101] had an IC50 greater than 30000 nM. `O=C(O)c1ccc(C(=O)Nc2cc(C(F)(F)F)cnc2N2CCC(O)CC2)o1` [Compound 098]: the IC50 was 871 nM. In turn, `O=C(Nc1cc(C(F)(F)F)cnc1N1CCCC(O)CC1)c1ccc(C2CCOCC2)o1` (stereo not shown) [Compound 031] registered an IC50 of 360 nM. In turn, `C[C@@H]1C[C@@H](O)CCN1c1ncc(C(F)(F)F)cc1NC(=O)c1ccc(-c2cc(N)nc(N)c2)o1` [Compound 132] returned an IC50 greater than 30000 nM. Take `O=C(Nc1cc(C(F)(F)F)cnc1N1CCC(O)CC1)c1ccncc1` [Compound 046, N-[2-(4-hydroxy-1-piperidyl)-5-(trifluoromethyl)-3-pyridyl]pyridine-4-carboxamide]: the IC50 was greater than 30000 nM.

Turning to `CC1(CN)CCN(c2ncc(C(F)(F)F)cc2NC(=O)c2ccc(C3CCOCC3)o2)CC1` [Compound 043], the IC50 was greater than 30000 nM. Under `O=C(Nc1cc(C(F)(F)F)cnc1N1CCCCC1)c1ccc(C2CCOCC2)o1` [Compound 036] stands greater than 30000 nM. The value for `O=C(Nc1cc(C(F)(F)F)cnc1N1CCC(O)CC1)c1ccc(-c2cncnc2)o1` [Compound 063] was 13500 nM.

On to `CC1C[C@@H](O)CCN1c1ncc(C(F)(F)F)cc1NC(=O)c1ccc(-c2ccncc2)o1` (stereo in doubt) [Compound 079, N-(2-((2R,4S)-4-hydroxy-2-methylpiperidin-1-yl)-5-(trifluoromethyl)pyridin-3-yl)-5-(pyridin-4-yl) furan-2-carboxamide], for which it took 102 nM to reach half-maximal inhibition (IC50). The value for `O=C(Nc1cc(C(F)(F)F)cnc1N1CCC(O)CC1)c1ccc(-c2cn[nH]n2)o1` [Compound 108] was 14.8 nM; that for `Nc1cc(-c2ccc(C(=O)Nc3cc(C(F)(F)F)cnc3N3CCc4[nH]ncc4C3)o2)ccn1` [Compound 124] was greater than 30000 nM; that for `O=C(Nc1cc(C(F)(F)F)cnc1N1CCC(CO)CC1)c1ccc(C2CCOCC2)o1` [Compound 083] was 39.8 nM. Under `CC1(O)CCCN(c2ncc(C(F)(F)F)cc2NC(=O)c2ccc(C3CCOCC3)o2)CC1` (stereo not shown) [Compound 055] stands 45.1 nM; under `O=C(Nc1cc(C2CC2)cnc1N1CCc2[nH]ncc2C1)c1ccc(-c2cn[nH]c2)o1` [Compound 121], greater than 30000 nM; under `O=C(Nc1cc(C(F)(F)F)cnc1N1CCC2(CCNC2=O)CC1)c1ccc(C2CCOCC2)o1` [Compound 073], 59.3 nM.

`O=C(Nc1cc(C(F)(F)F)cnc1-c1cccnc1)c1ccc(C2CCOCC2)o1` [Compound 009] showed a 50% inhibitory concentration (IC50) greater than 30000 nM.

As to `CC(=O)N1CCN(c2ncc(C(F)(F)F)cc2NC(=O)c2ccc(C3CCOCC3)o2)CC1` [Compound 085], the IC50 was determined as 2050 nM. With `O=C(Nc1cc(C(F)(F)F)cnc1N1CCN(Cc2ccccn2)CC1)c1ccc(C2CCOCC2)o1` [Compound 002, N-(2-(4-(pyridin-2-ylmethyl)piperazin-1-yl)-5-(trifluoromethyl)pyridin-3-yl)-5-(tetrahydro-2H-pyran-4-yl) furan-2-carboxamide], the IC50 is 309 nM. Take `NC(=O)C1(O)CCN(c2ncc(C(F)(F)F)cc2NC(=O)c2ccc(C3CCOCC3)o2)CC1` [Compound 096, 4-hydroxy-1-[3-[(5-tetrahydropyran-4-ylfuran-2-carbonyl)amino]-5-(trifluoromethyl)-2-pyridyl]piperidine-4-carboxamide]: half-maximal inhibition (IC50) was put at 18.3 nM. Regarding `CC1(O)CCN(c2ncc(C(F)(F)F)cc2NC(=O)c2ccc(-c3ccncc3)o2)CC1` [Compound 026], the IC50 stood at 358 nM. Compared with the last compound, the IC50 is about 20-fold higher. In turn, `O=C(Nc1cc(C(F)(F)F)cnc1N1CCc2n[nH]cc2C1)c1ccc(C2CCOCC2)o1` [Compound 078] displayed an IC50 of 27.9 nM. Take `C[C@@H]1C[C@H](O)CCN1c1ncc(C(F)(F)F)cc1NC(=O)c1ccc(-c2cc(N)nc(N)c2)o1` [Compound 133]: the IC50 is greater than 30000 nM. In turn, `C[C@@H]1C[C@@H](O)CCN1c1ncc(C2CC2)cc1NC(=O)c1ccc(-c2ccnc(N)c2)o1` [Compound 119] returned an IC50 greater than 30000 nM. The value for `CN1CCC2(CCN(c3ncc(C(F)(F)F)cc3NC(=O)c3ccc(C4CCOCC4)o3)CC2)C1=O` [Compound 030] was 232 nM; that for `CC(=O)OC1CCN(c2ncc(C(F)(F)F)cc2NC(=O)c2ccc(-c3ccnnc3)o2)CC1` [Compound 049] was 2340 nM. The value for `O=C(Nc1cc(C(F)(F)F)cnc1N1CCOCC1)c1ccc(C2CCOCC2)o1` [Compound 037] was greater than 30000 nM; that for `O=C(Nc1cc(C(F)(F)F)cnc1N1CCC(O)CC1)c1ccc(-c2ccnc(F)c2)o1` [Compound 016] was greater than 30000 nM; that for `O=C(Nc1cc(C(F)(F)F)cnc1N1CCC(O)CC1)c1ccn(C2CCOCC2)n1` [Compound 103] was 136 nM.

Regarding `O=C(Nc1cc(C(F)(F)F)cnc1N1CCC(O)CC1)c1ccc(-c2ccnnc2)o1` [Compound 050], half-maximal inhibition (IC50) required 435 nM. Against the preceding compound, the IC50 is about 3.2-fold higher. For `CC1(O)CCN(c2ncc(C(F)(F)F)cc2NC(=O)c2ccc(C3CCOCC3)o2)CC1` [Compound 027, N-[2-(4-hydroxy-4-methyl-1-piperidyl)-5-(trifluoromethyl)-3-pyridyl]-5-tetrahydropyran-4-yl-furan-2-carboxamide], the half-maximal inhibitory concentration (IC50) came out at 36.7 nM. In the case of `NC(=O)C1CCN(c2ncc(C(F)(F)F)cc2NC(=O)c2ccc(C3CCOCC3)o2)CC1` [Compound 088], 71.7 nM corresponded to half-maximal inhibition (IC50). Under `O=C(Nc1cc(C(F)(F)F)cnc1-c1cncnc1)c1ccc(C2CCOCC2)o1` [Compound 013] stands 14700 nM; under `O=C(Nc1cc(C(F)(F)F)cnc1-c1ccn[nH]1)c1ccc(C2CCOCC2)o1` [Compound 019], 217 nM. The value for `O=C(Nc1cc(C2CC2)cnc1N1CCC(O)CC1)c1ccc(C2CCOCC2)o1` [Compound 029] was 30.9 nM; that for `O=C(Nc1cc(C(F)(F)F)cnc1N1CCC(O)CC1)c1ccc(-c2ccncc2)o1` [Compound 004, N-(2-(4-hydroxypiperidin-1-yl)-5-(trifluoromethyl)pyridin-3-yl)-5-(pyridine-4-yl) furan-2-carboxamide] was 79 nM; that for `CC1(O)CCCN(c2ncc(C(F)(F)F)cc2NC(=O)C2CCC(C3CCOCC3)O2)CC1` (stereo not shown) [Compound 058] was 15700 nM. Compound `Nc1n[nH]cc1-c1ccc(C(=O)Nc2cc(C(F)(F)F)cnc2N2CCC(O)CC2)o1` [Compound 106, 5-(3-amino-1H-pyrazol-4-yl)-N-[2-(4-hydroxy-1-piperidyl)-5-(trifluoromethyl)-3-pyridyl]furan-2-carboxamide] yielded an IC50 of 142 nM. `CN1CCC(c2ncc(C(F)(F)F)cc2NC(=O)c2ccc(C3CCOCC3)o2)CC1` [Compound 071, N-(2-(1-methylpiperidin-4-yl)-5-(trifluoromethyl)pyridin-3-yl)-5-(tetrahydro-2H-pyran-4-yl) furan-2-carboxamide] yielded an IC50 of 6870 nM. Under `C[C@@H]1C[C@H](O)CCN1c1ncc(C(F)(F)F)cc1NC(=O)c1ccc(Br)o1` [Compound 109] stands 746 nM; under `O=C(Nc1cc(C(F)(F)F)cnc1N1CCC(O)CC1)c1ccc(-c2cccnc2)o1` [Compound 056], 23.5 nM.

`O=C(Nc1cc(C(F)(F)F)cnc1N1CCC(O)(C(F)(F)F)CC1)c1ccc(C2CCOCC2)o1` [Compound 069]: 63.7 nM corresponded to half-maximal inhibition (IC50). Take `C[C@@H]1C[C@H](O)CCN1c1ncc(C2CC2)cc1NC(=O)c1ccc(-c2ccnc(N)c2)o1` [Compound 128]: the IC50 was greater than 30000 nM. The compound `O=C(Nc1cc(C(F)(F)F)cnc1N1CCC(O)CC1)c1ccc(-c2c[nH]cn2)o1` [Compound 104] showed an IC50 of 556 nM. `C[C@@H]1C[C@@H](O)CCN1c1ncc(C2CC2)cc1NC(=O)c1ccc(Br)o1` [Compound 116] had an IC50 greater than 30000 nM. `CC1(O)CCN(c2ncc(Cl)cc2NC(=O)c2ccc(-c3ccncc3)o2)CC1` [Compound 024]: the IC50 turned out to be 346 nM. `C[C@@H]1C[C@@H](O)CCN1c1ncc(C(F)(F)F)cc1NC(=O)c1ccc(Br)o1` [Compound 107, 5-bromo-N-[2-[(2R,4S)-4-hydroxy-2-methyl-1-piperidyl]-5-(trifluoromethyl)-3-pyridyl]furan-2-carboxamide]: the midpoint of inhibition, the IC50, lay at 746 nM. `O=C(Nc1cc(C2CC2)cnc1N1CCc2[nH]ncc2C1)c1ccc(Br)o1` [Compound 120] registered an IC50 greater than 30000 nM. Take `CC1(C(=O)O)CCN(c2ncc(C(F)(F)F)cc2NC(=O)c2ccc(C3CCOCC3)o2)CC1` [Compound 044]: the 50% inhibitory concentration (IC50) stood at 154 nM.

Turning to `O=C(Nc1cc(C(F)(F)F)cnc1N1CCc2[nH]ncc2C1)c1ccc(Br)o1` [Compound 115], the IC50 was greater than 30000 nM. `O=C(Nc1cc(C(F)(F)F)cnc1N1CCC(O)CC1)c1cc(Cl)ccn1` [Compound 091] gave a half-inhibitory concentration (IC50) greater than 30000 nM. Under `CN(C)C(=O)C1CCN(c2ncc(C(F)(F)F)cc2NC(=O)c2ccc(C3CCOCC3)o2)CC1` [Compound 040] stands 193 nM. Under `O=C(Nc1cc(C(F)(F)F)cnc1N1CCC(F)(F)CC1)c1ccc(-c2ccncc2)o1` [Compound 070] stands 4640 nM. Turning to `O=C(Nc1cc(C2CC2)cnc1N1CCC(O)CC1)c1ccc(-c2ccncc2)o1` [Compound 034], it took 24.8 nM to reach half-maximal inhibition (IC50). In turn, `O=C(Nc1cc(C(F)(F)F)cnc1N1CCC2(CC1)CC(O)C2)c1ccc(C2CCOCC2)o1` [Compound 060] returned an IC50 of 51.9 nM. This IC50 lies about 2.1-fold higher than the previous one.
